Assay [1] relates to PBMC. Conditions: 12.5 µM.
Assay [2] relates to MDA-MB-231 cells.

As for `CC[C@H](C)[C@H](N)C(=O)N[C@@H](CC(N)=O)C(=O)N[C@@H](CC(C)C)C(=O)N[C@@H](CCCCN)C(=O)N[C@@H](C)C(=O)N[C@@H](CC(C)C)C(=O)N[C@@H](C)C(=O)N[C@@H](CO)C(=O)N[C@@H](CC(C)C)C(=O)N[C@@H](C)C(=O)N[C@@H](CCCCN)C(=O)N[C@@H](CCCCN)C(=O)N[C@H](C(=O)N[C@@H](CC(C)C)C(N)=O)[C@@H](C)CC` [S8], the “Average (percentage cell inhibition), Mastoparan PBMC” value in assay [1] was -6.033%. For the same molecule, the “Average (percentage cell inhibition), Dmastoparan MDA-MB231 12.5uM” value in assay [2] turned out to be 32.8816%.

As for `CC[C@H](C)[C@H](N)C(=O)N[C@@H](CC(N)=O)C(=O)N[C@@H](CC(C)C)C(=O)N[C@@H](CCCCN)C(=O)N[C@@H](C)C(=O)N[C@@H](CC(C)C)C(=O)N[C@@H](C)C(=O)N[C@@H](C)C(=O)N[C@@H](CO)C(=O)N[C@@H](C)C(=O)N[C@@H](CCCCN)C(=O)N[C@@H](CCCCN)C(=O)N[C@H](C(=O)N[C@@H](CC(C)C)C(N)=O)[C@@H](C)CC` [S9], the “Average (percentage cell inhibition), Mastoparan PBMC” value in assay [1] is listed as -4.8979%. For the same molecule, the “Average (percentage cell inhibition), Dmastoparan MDA-MB231 12.5uM” value in assay [2] was 27.2293%.

For `CC[C@H](C)[C@H](N)C(=O)N[C@@H](CC(N)=O)C(=O)N[C@@H](CC(C)C)C(=O)N[C@@H](CCCCN)C(=O)N[C@@H](C)C(=O)N[C@@H](CC(C)C)C(=O)N[C@@H](C)C(=O)N[C@@H](C)C(=O)N[C@@H](CC(C)C)C(=O)N[C@@H](CO)C(=O)N[C@@H](CCCCN)C(=O)N[C@@H](CCCCN)C(=O)N[C@H](C(=O)N[C@@H](CC(C)C)C(N)=O)[C@@H](C)CC` [S10], in assay [1], the “Average (percentage cell inhibition), Mastoparan PBMC” value came to 1.271%. Moreover, the “Average (percentage cell inhibition), Dmastoparan MDA-MB231 12.5uM” value in assay [2] is recorded as 30.5653%.

For the molecule `CC[C@H](C)[C@H](N)C(=O)N[C@@H](CC(N)=O)C(=O)N[C@@H](CC(C)C)C(=O)N[C@@H](CCCCN)C(=O)N[C@@H](C)C(=O)N[C@@H](CC(C)C)C(=O)N[C@@H](C)C(=O)N[C@@H](C)C(=O)N[C@@H](CC(C)C)C(=O)N[C@@H](C)C(=O)N[C@@H](CO)C(=O)N[C@@H](CCCCN)C(=O)N[C@H](C(=O)N[C@@H](CC(C)C)C(N)=O)[C@@H](C)CC` [S11], the “Average (percentage cell inhibition), Mastoparan PBMC” value in assay [1] is recorded as 3.714%. Further, in assay [2], the “Average (percentage cell inhibition), Dmastoparan MDA-MB231 12.5uM” value came to 28.2862%.

Turning to `CC[C@H](C)[C@H](N)C(=O)N[C@@H](CC(N)=O)C(=O)N[C@@H](CC(C)C)C(=O)N[C@@H](CCCCN)C(=O)N[C@@H](C)C(=O)N[C@@H](CC(C)C)C(=O)N[C@@H](C)C(=O)N[C@@H](C)C(=O)N[C@@H](CC(C)C)C(=O)N[C@@H](C)C(=O)N[C@@H](CCCCN)C(=O)N[C@@H](CO)C(=O)N[C@H](C(=O)N[C@@H](CC(C)C)C(N)=O)[C@@H](C)CC` [S12], in assay [1], the “Average (percentage cell inhibition), Mastoparan PBMC” value was found to be 1.96%. The “Average (percentage cell inhibition), Dmastoparan MDA-MB231 12.5uM” value in assay [2] was 38.966%.

Regarding `CC[C@H](C)[C@H](N)C(=O)N[C@@H](CC(N)=O)C(=O)N[C@@H](CC(C)C)C(=O)N[C@@H](CCCCN)C(=O)N[C@@H](C)C(=O)N[C@@H](CC(C)C)C(=O)N[C@@H](C)C(=O)N[C@@H](C)C(=O)N[C@@H](CC(C)C)C(=O)N[C@@H](C)C(=O)N[C@@H](CCCCN)C(=O)N[C@@H](CCCCN)C(=O)N[C@@H](CO)C(=O)N[C@@H](CC(C)C)C(N)=O` [S13], in assay [1], the “Average (percentage cell inhibition), Mastoparan PBMC” value is -6.27%. In assay [2], the “Average (percentage cell inhibition), Dmastoparan MDA-MB231 12.5uM” value is 39.6113%.

As for `CC[C@H](C)[C@H](N)C(=O)N[C@@H](CC(N)=O)C(=O)N[C@@H](CC(C)C)C(=O)N[C@@H](CCCCN)C(=O)N[C@@H](C)C(=O)N[C@@H](CC(C)C)C(=O)N[C@@H](C)C(=O)N[C@@H](C)C(=O)N[C@@H](CC(C)C)C(=O)N[C@@H](C)C(=O)N[C@@H](CCCCN)C(=O)N[C@@H](CCCCN)C(=O)N[C@H](C(=O)N[C@@H](CO)C(N)=O)[C@@H](C)CC` [S14], in assay [1], the “Average (percentage cell inhibition), Mastoparan PBMC” value is -3.76%. The “Average (percentage cell inhibition), Dmastoparan MDA-MB231 12.5uM” value in assay [2] was found to be 38.8299%.

On to `CC[C@H](C)[C@H](NC(=O)[C@H](CCCCN)NC(=O)[C@H](CCCCN)NC(=O)[C@H](C)NC(=O)[C@H](CC(C)C)NC(=O)[C@H](C)NC(=O)[C@H](C)NC(=O)[C@H](CC(C)C)NC(=O)[C@H](C)NC(=O)[C@H](CCCCN)NC(=O)[C@H](CC(C)C)NC(=O)[C@H](CC(N)=O)NC(=O)[C@@H](N)[C@@H](C)O)C(=O)N[C@@H](CC(C)C)C(N)=O` [T1], for which, in assay [1], the “Average (percentage cell inhibition), Mastoparan PBMC” value turned out to be 14.7113%. For the same molecule, the “Average (percentage cell inhibition), Dmastoparan MDA-MB231 12.5uM” value in assay [2] stood at 37.2219%.

For the molecule `CC[C@H](C)[C@H](N)C(=O)N[C@H](C(=O)N[C@@H](CC(C)C)C(=O)N[C@@H](CCCCN)C(=O)N[C@@H](C)C(=O)N[C@@H](CC(C)C)C(=O)N[C@@H](C)C(=O)N[C@@H](C)C(=O)N[C@@H](CC(C)C)C(=O)N[C@@H](C)C(=O)N[C@@H](CCCCN)C(=O)N[C@@H](CCCCN)C(=O)N[C@H](C(=O)N[C@@H](CC(C)C)C(N)=O)[C@@H](C)CC)[C@@H](C)O` [T2], in assay [1], the “Average (percentage cell inhibition), Mastoparan PBMC” value worked out at 20.7916%. Further, the “Average (percentage cell inhibition), Dmastoparan MDA-MB231 12.5uM” value in assay [2] amounted to 59.8803%.

With `CC[C@H](C)[C@H](N)C(=O)N[C@@H](CC(N)=O)C(=O)N[C@H](C(=O)N[C@@H](CCCCN)C(=O)N[C@@H](C)C(=O)N[C@@H](CC(C)C)C(=O)N[C@@H](C)C(=O)N[C@@H](C)C(=O)N[C@@H](CC(C)C)C(=O)N[C@@H](C)C(=O)N[C@@H](CCCCN)C(=O)N[C@@H](CCCCN)C(=O)N[C@H](C(=O)N[C@@H](CC(C)C)C(N)=O)[C@@H](C)CC)[C@@H](C)O` [T3], the “Average (percentage cell inhibition), Mastoparan PBMC” value in assay [1] is 8.955%. The “Average (percentage cell inhibition), Dmastoparan MDA-MB231 12.5uM” value in assay [2] worked out at 21.7833%.

In the case of `CC[C@H](C)[C@H](N)C(=O)N[C@@H](CC(N)=O)C(=O)N[C@@H](CC(C)C)C(=O)N[C@H](C(=O)N[C@@H](C)C(=O)N[C@@H](CC(C)C)C(=O)N[C@@H](C)C(=O)N[C@@H](C)C(=O)N[C@@H](CC(C)C)C(=O)N[C@@H](C)C(=O)N[C@@H](CCCCN)C(=O)N[C@@H](CCCCN)C(=O)N[C@H](C(=O)N[C@@H](CC(C)C)C(N)=O)[C@@H](C)CC)[C@@H](C)O` [T4], the “Average (percentage cell inhibition), Mastoparan PBMC” value in assay [1] worked out at 12.9948%. In assay [2], the “Average (percentage cell inhibition), Dmastoparan MDA-MB231 12.5uM” value is recorded as 29.8701%.

`CC[C@H](C)[C@H](N)C(=O)N[C@@H](CC(N)=O)C(=O)N[C@@H](CC(C)C)C(=O)N[C@@H](CCCCN)C(=O)N[C@H](C(=O)N[C@@H](CC(C)C)C(=O)N[C@@H](C)C(=O)N[C@@H](C)C(=O)N[C@@H](CC(C)C)C(=O)N[C@@H](C)C(=O)N[C@@H](CCCCN)C(=O)N[C@@H](CCCCN)C(=O)N[C@H](C(=O)N[C@@H](CC(C)C)C(N)=O)[C@@H](C)CC)[C@@H](C)O` [T5]: the “Average (percentage cell inhibition), Mastoparan PBMC” value in assay [1] was 12.9165%. For the same molecule, the “Average (percentage cell inhibition), Dmastoparan MDA-MB231 12.5uM” value in assay [2] was 39.042%.

As to `CC[C@H](C)[C@H](N)C(=O)N[C@@H](CC(N)=O)C(=O)N[C@@H](CC(C)C)C(=O)N[C@@H](CCCCN)C(=O)N[C@@H](C)C(=O)N[C@H](C(=O)N[C@@H](C)C(=O)N[C@@H](C)C(=O)N[C@@H](CC(C)C)C(=O)N[C@@H](C)C(=O)N[C@@H](CCCCN)C(=O)N[C@@H](CCCCN)C(=O)N[C@H](C(=O)N[C@@H](CC(C)C)C(N)=O)[C@@H](C)CC)[C@@H](C)O` [T6], the “Average (percentage cell inhibition), Mastoparan PBMC” value in assay [1] is on record as 0.8912%. Also, in assay [2], the “Average (percentage cell inhibition), Dmastoparan MDA-MB231 12.5uM” value worked out at 9.306%.

For the molecule `CC[C@H](C)[C@H](N)C(=O)N[C@@H](CC(N)=O)C(=O)N[C@@H](CC(C)C)C(=O)N[C@@H](CCCCN)C(=O)N[C@@H](C)C(=O)N[C@@H](CC(C)C)C(=O)N[C@H](C(=O)N[C@@H](C)C(=O)N[C@@H](CC(C)C)C(=O)N[C@@H](C)C(=O)N[C@@H](CCCCN)C(=O)N[C@@H](CCCCN)C(=O)N[C@H](C(=O)N[C@@H](CC(C)C)C(N)=O)[C@@H](C)CC)[C@@H](C)O` [T7], the “Average (percentage cell inhibition), Mastoparan PBMC” value in assay [1] came to 3.741%. In assay [2], the “Average (percentage cell inhibition), Dmastoparan MDA-MB231 12.5uM” value turned out to be 29.9324%.

Turning to `CC[C@H](C)[C@H](N)C(=O)N[C@@H](CC(N)=O)C(=O)N[C@@H](CC(C)C)C(=O)N[C@@H](CCCCN)C(=O)N[C@@H](C)C(=O)N[C@@H](CC(C)C)C(=O)N[C@@H](C)C(=O)N[C@H](C(=O)N[C@@H](CC(C)C)C(=O)N[C@@H](C)C(=O)N[C@@H](CCCCN)C(=O)N[C@@H](CCCCN)C(=O)N[C@H](C(=O)N[C@@H](CC(C)C)C(N)=O)[C@@H](C)CC)[C@@H](C)O` [T8], the “Average (percentage cell inhibition), Mastoparan PBMC” value in assay [1] came out at 11.6569%. Further, the “Average (percentage cell inhibition), Dmastoparan MDA-MB231 12.5uM” value in assay [2] turned out to be 35.9719%.

For the molecule `CC[C@H](C)[C@H](N)C(=O)N[C@@H](CC(N)=O)C(=O)N[C@@H](CC(C)C)C(=O)N[C@@H](CCCCN)C(=O)N[C@@H](C)C(=O)N[C@@H](CC(C)C)C(=O)N[C@@H](C)C(=O)N[C@@H](C)C(=O)N[C@H](C(=O)N[C@@H](C)C(=O)N[C@@H](CCCCN)C(=O)N[C@@H](CCCCN)C(=O)N[C@H](C(=O)N[C@@H](CC(C)C)C(N)=O)[C@@H](C)CC)[C@@H](C)O` [T9], the “Average (percentage cell inhibition), Mastoparan PBMC” value in assay [1] came to 2.309%. The “Average (percentage cell inhibition), Dmastoparan MDA-MB231 12.5uM” value in assay [2] came out at 18.2148%.

Consider `CC[C@H](C)[C@H](N)C(=O)N[C@@H](CC(N)=O)C(=O)N[C@@H](CC(C)C)C(=O)N[C@@H](CCCCN)C(=O)N[C@@H](C)C(=O)N[C@@H](CC(C)C)C(=O)N[C@@H](C)C(=O)N[C@@H](C)C(=O)N[C@@H](CC(C)C)C(=O)N[C@H](C(=O)N[C@@H](CCCCN)C(=O)N[C@@H](CCCCN)C(=O)N[C@H](C(=O)N[C@@H](CC(C)C)C(N)=O)[C@@H](C)CC)[C@@H](C)O` [T10], for which the “Average (percentage cell inhibition), Mastoparan PBMC” value in assay [1] is recorded as 8.853%. Also, the “Average (percentage cell inhibition), Dmastoparan MDA-MB231 12.5uM” value in assay [2] is listed as 27.2715%.

As for `CC[C@H](C)[C@H](N)C(=O)N[C@@H](CC(N)=O)C(=O)N[C@@H](CC(C)C)C(=O)N[C@@H](CCCCN)C(=O)N[C@@H](C)C(=O)N[C@@H](CC(C)C)C(=O)N[C@@H](C)C(=O)N[C@@H](C)C(=O)N[C@@H](CC(C)C)C(=O)N[C@@H](C)C(=O)N[C@H](C(=O)N[C@@H](CCCCN)C(=O)N[C@H](C(=O)N[C@@H](CC(C)C)C(N)=O)[C@@H](C)CC)[C@@H](C)O` [T11], the “Average (percentage cell inhibition), Mastoparan PBMC” value in assay [1] was 10.2886%. Further, the “Average (percentage cell inhibition), Dmastoparan MDA-MB231 12.5uM” value in assay [2] is given as 32.1267%.
